# From the METLIN SMRT retention time set (Domingo-Almenara et al. 2019)
# Test: gradient 5% acetonitrile 3 min, to 50% in 2 min, to 85% in 15 min, held 3 min, 100 µL/min
# Conditions: column: Zorbax Extend-C18 2.1 x 50 mm; eluents: water / acetonitrile, 0.1% formic acid
# Summary of the method: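 Standards, all pure, were combined into mixtures of ~100 molecules and run at 100 μL/min on a Zorbax Extend-C18 column (2.1 × 50 mm, 1.8 μm) with water and acetonitrile, each containing 0.1% formic acid. A coupled quadrupole time-of-flight mass spectrometer operated in positive and negative ionization mode. Retention time values come from computationally picked adduct peaks, each inspected manually.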
row,Structure (SMILES),RP-LC retention time
1,O=c1n(CCOc2ccc(F)cc2)nc2c(S(=O)(=O)N3CCCC3)cccn12,824 s
2,Cc1cccc2nnc(N3CCC(C(=O)NCc4ccccc4Cl)CC3)n12,679 s
3,Cc1ccc(S(=O)(=O)c2cnc(N3CCN(c4cccc(C)c4)CC3)nc2N)cc1,1130 s
4,Cn1nnc2ccc(-c3noc(-c4ccccc4)n3)cc21,985 s
5,CCN1c2ccc(F)cc2C(=O)NC12CCN(C(=O)c1ccccc1C)CC2,835 s
6,COc1ccc(-c2coc3cc(OCC(=O)O)ccc3c2=O)cc1OC,703 s
7,O=S(=O)(Nc1ccc(F)cc1)c1cccnc1Nc1ccccc1,1050 s
8,COCCCNC(=O)CN1c2ccc(F)cc2-c2ccccc2S1(=O)=O,756 s
9,O=C(CCc1c(-c2ccc(Br)cc2)nc2ccccn12)NCc1ccco1,660 s
10,CN1C(=O)[C@H]2CN(Cc3ccc(F)cc3Cl)C[C@H]2C1=O,642 s
11,O=C(Nc1cccc(F)c1)N1CCCC1c1nc(-c2cccc(Cl)c2)no1 (stereo unspecified),1080 s
12,COc1ccc(OCC(=O)N2CCN(c3nccn3-c3ccccc3F)CC2)cc1,573 s
13,COC(=O)c1c(C)[nH]c(C(=O)N2CCC(CC(=O)N3CCN(c4ccccn4)CC3)CC2)c1C,606 s
14,CCOc1ccccc1NC(=O)Cn1nc(C(=O)N2CCCC2)c2ccccc21,917 s
15,CCc1nc(-c2csc(S(=O)(=O)N3CCCC(C(=O)Nc4ccc(OC)cc4)C3)c2)no1 (stereo unspecified),917 s
16,Cc1ccc(Cl)cc1NC(=O)N1CCCC1c1nc(-c2ccccc2C)no1 (stereo unspecified),1120 s
17,COC(=O)c1ccc(C(=O)OC)c(NC(=O)N2CCC(CN3CC(C)CC(C)C3)CC2)c1 (stereo unspecified),722 s
18,CCOc1ncccc1C(=O)OCc1cc(-c2ccco2)on1,927 s

row,Structure (SMILES),RP-LC retention time
1,COc1cccc(NC(=O)Nc2c(-c3ccsc3)nc3ccccn23)c1,639 s
2,Cc1cnc(C(=O)N2CCCCCNC(=O)[C@@H]3CCC[C@@H]32)cn1,623 s
3,CCc1ccc(CN2CCC([C@@H]3CNC[C@H]3CO)CC2)cc1,558 s
4,CCn1c(-c2cccc(C(=O)NCc3cccs3)c2)nc2cccnc21,733 s
5,COc1ccc(-c2nc(-c3ccc4oc(C)nc4c3)no2)c(OC)c1,976 s
6,CC(C)S(=O)(=O)c1cc2c(cc1NC(=O)c1ccccc1Cl)n(C)c(=O)n2C,824 s
7,COc1ccc(CCc2nc3nccc(-c4ccccc4)n3n2)cc1OC,821 s
8,N#Cc1ccc(C(=O)NCc2[nH]nc3ccccc23)cc1,699 s
9,Cn1c(=O)c(-c2noc(C(=O)N3CCN(c4ccccn4)CC3)n2)nn(-c2ccc(F)cc2)c1=O,666 s
10,CC(C)NC(=O)c1ccc(Nc2c(-c3ccccc3)nc3cnccn23)cc1,702 s
11,O=C(C1=NN(Cc2ccc(Cl)cc2)c2ccccc2S1(=O)=O)N1CCOCC1,854 s
12,CCOc1cc(=O)n2c(c1C(=O)Nc1cc(F)ccc1Cl)CCCC2,822 s
13,CCc1ccc2nc(Nc3ncc4c(n3)CC(c3ccccc3)CC4=O)nc(C)c2c1 (stereo unspecified),636 s
14,CCOC(=O)c1ccc2nc(C(F)(F)F)nc(NC(C)CCc3ccccc3)c2c1 (stereo unspecified),1360 s
15,COc1ccc(CNC(=O)C2CCN(S(=O)(=O)c3ccc4c(c3)sc(=O)n4C)CC2)cc1,795 s
16,COc1ccc(Cn2c(=O)c3sccc3n(Cc3nc(-c4ccc(C)cc4)no3)c2=O)cc1,1060 s
17,Cc1nc(C(=O)NCc2cccc(Cl)c2)c(C)o1,871 s
18,Fc1ccc(C(OCCN2CCN(C/C=C/c3ccccc3)CC2)c2ccc(F)cc2)cc1,916 s
